Experimental data: US20260048028A1, “Methods of Use for Disulfiram and Metabolites Thereof” (PS Therapy, Inc., priority 2022, published 2026)

Assays:
IL-8 mRNA = IL-8 mRNA levels in Aspergillus flavus infected human corneal epithelial cells; type: cell-based; conditions: HCE cells infected with A. flavus spores
Method: 3 sets of human corneal epithelial (“HCE”) cells were plated and assayed for IL-8 mRNA levels as a control. 9 sets of HC cells were then infected with […] of Aspergillus flavus spores. 16 hours post infection the cells were assayed for IL-8 mRNA levels. 3 sets of HCE cells were then administered DSF in DMSO. Several hours following administration of each, IL-8 mRNA levels were assayed.
3 sets of HCE cells were plated and assayed for IL-8 mRNA levels as a control. 9 sets of HC cells were then infected with […] of Aspergillus flavus spores. 16 hours post infection the cells were assayed for IL-mRNA levels. 3 sets of HCE cells were then each administered NaDDC in water. Several hours following administration of each, IL-8 mRNA levels were assayed.

[1] = tested on: transforming growth factor beta 1 (TGFβ1); experiment: Alkali-burn injury in mice, RT-PCR expression of TGFβ1 in eyes; type: in vivo; conditions: RT-PCR of enucleated eyes after 7 days of topical 300 μM NaDDC three times daily
Method: (§1) C57BL/6 mice were divided into three groups, control group 1 (n=6), group 2 (n=6) and group 3 (n=3). Each group consisted of mice with their left eye (“LE”) left undisturbed as a control, while the right eye (“RE”) of all mice in each group was subjected to alkali burn. Prior to inducing alkali burn, mice were anesthetized using an injection of an anesthetic cocktail containing ketamine (20 mg/ml) and xylazine (4 mg/ml) at a dose of approximately […] per 25 g mouse. Topical analgesia was provided using proparacaine hydrochloride (0.5%) on the corneal surface. A round filter paper piece (˜2 mm in diameter) was soaked in a 0.5 M NaOH solution. […]
(§2) On the 7th day following the alkali burn, corneal images were captured using slit microscopy to monitor changes in corneal opacity and neovascularization. The degree of corneal injury was evaluated and scored in a blinded manner by trained observers. Corneal opacity was evaluated using a grading scale ranging from 0 to 4, where 0 represented a completely clear cornea, 1 indicated slight haziness with the iris and pupil easily visible, 2 denoted slight opacity with detectable iris and pupil, 3 indicated significant opacity with difficulty in detecting pupils, and 4 represented complete opacity with no view of the pupil. […]

[2] = tested on: tumor necrosis factor alpha (TNFα); experiment: Alkali-burn injury in mice, RT-PCR expression of TNFα in eyes; type: in vivo; conditions: RT-PCR of enucleated eyes after 7 days of topical 300 μM NaDDC three times daily
Method: as §1, §2

gasdermin D (GSDMD) = experiment: Alkali-burn injury in mice, RT-PCR expression of GSDMD in eyes; type: in vivo; conditions: RT-PCR of enucleated eyes after 7 days of topical 300 μM NaDDC three times daily
Method: as §1, §2

C57BL/6 mice = experiment: Alkali-burn injury in mice, slit-lamp scoring of corneal opacity and neovascularization; type: in vivo; conditions: topical three times daily for 7 days (NaDDC 300 μM); for corneal opacity mean score: grading scale 0 to 4, day 7 after alkali burn; for neovascularization score: scale 0 to 3, day 7 after alkali burn
Method: C57BL/6 mice were divided into three groups, control group 1 (n=6), group 2 (n=6) and group 3 (n=3). Each group consisted of mice with their left eye (“LE”) left undisturbed as a control, while the right eye (“RE”) of all mice in each group was subjected to alkali burn. Prior to inducing alkali burn, mice were anesthetized using an injection of an anesthetic cocktail containing ketamine (20 mg/ml) and xylazine (4 mg/ml) at a dose of approximately […] per 25 g mouse. Topical analgesia was provided using proparacaine hydrochloride (0.5%) on the corneal surface. A round filter paper piece (˜2 mm in diameter) was soaked in a 0.5 M NaOH solution. The NaOH-soaked filter paper was gently placed on the central cornea of the RE for precisely 30 seconds, generating an acute alkali burn. Following the removal of the filter paper, the RE was flushed gently with 10 ml of 1×PBS using a 10 ml syringe to ensure thorough removal of residual NaOH. Immediately after the eye flush, the treatment application was initiated for Group 2 and Group 3 mice. Group 1 was left untreated. For Group 2, a drop of 300 μM NaDDC was topically applied to the cornea of the RE. For Group 3, the RE was topically treated with commercially available prednisolone. The treatment was repeated three times daily for a duration of 7 days.
On the 7th day following the alkali burn, corneal images were captured using slit microscopy to monitor changes in corneal opacity and neovascularization. The degree of corneal injury was evaluated and scored in a blinded manner by trained observers. Corneal opacity was evaluated using a grading scale ranging from 0 to 4, where 0 represented a completely clear cornea, 1 indicated slight haziness with the iris and pupil easily visible, 2 denoted slight opacity with detectable iris and pupil, 3 indicated significant opacity with difficulty in detecting pupils, and 4 represented complete opacity with no view of the pupil. The degree of neovascularization was scored on a scale of 0 to 3, with 0 indicating no new vessels, 1 representing new vessels present at the corneal limbus, 2 denoting new vessels extending from the corneal limbus toward the corneal centre, and 3 indicating new vessels spanning the entire corneal centre. At the end of the treatment period, mice from control group 1 and NaDDC treated group 2 were sacrificed and the eyes were enucleated for further analysis, including RT-PCR studies, to investigate the expression levels of tumor necrosis factor alpha (“TNFα”), gasdermin D (“GSDMD”), intercellular adhesion molecule 1 (“ICAM1”) and transforming growth factor beta 1 (“TGFβ1”).

IL-6 mRNA = IL-6 mRNA levels in HCE cells under hyperosmolarity; type: cell-based, human; conditions: 400 milliosmoles, 6 hours post hyperosmolarity induction, −control 290 milliosmoles
Method: Sets of HCE cells were plated in iso-osmotic solutions (290 milliosmoles) […] and assayed for IL-8 and IL-6 mRNA levels as a control. Sets of HC cells were subjected to hyperosmolarity conditions (i.e. placed in a solution having an osmolarity of 400 milliosmoles) either with or without NaDDC. 6 hours post hyperosmolarity induction the cells were assayed for IL-mRNA levels.

[3] = tested on: intercellular adhesion molecule 1 (ICAM1); experiment: Alkali-burn injury in mice, RT-PCR expression of ICAM1 in eyes; type: in vivo; conditions: RT-PCR of enucleated eyes after 7 days of topical 300 μM NaDDC three times daily
Method: as §1, §2

[4] = DSF in DMSO given 16 hours post infection
[5] = NaDDC in water given 16 hours post infection

Compound	IL-8 mRNA levels (% change from uninfected) (IL-8 mRNA; [4])	IL-8 mRNA levels (% reduction from water) (IL-8 mRNA; [4])	TGFβ1 expression, % of untreated control group [1]	IL-8 mRNA levels (% increase from uninfected) (IL-8 mRNA; [5])	IL-8 mRNA levels (% reduction from water) (IL-8 mRNA; [5])	expression level of TNFα, % of untreated control group [2]	GSDMD expression, % of untreated control group (gasdermin D (GSDMD))	corneal opacity mean score (C57BL/6 mice)	neovascularization score (C57BL/6 mice)	IL-6 mRNA levels (% increase from −control) (IL-6 mRNA)	ICAM1 expression, % of untreated control group [3]
CCN(CC)C(=S)SSC(=S)N(CC)CC [DSF, 1,1′-disulfanediylbis(N,N-diethylmethanethioamide), reference compound]	21.2%	88.5%									
CCN(CC)C(=S)[S-].[Na+] [NaDDC, sodium;N,N-diethylcarbamodithioate]			28%	10.5%	85.19%	8%	42%	0.83	0	100%	5%
C[C@]12C=CC(=O)C=C1CC[C@@H]1[C@@H]2[C@@H](O)C[C@@]2(C)[C@H]1CC[C@]2(O)C(=O)CO [prednisolone, reference compound]								2.67	0		
